Experimental data as given in ChEMBL document CHEMBL5442741, “ASAP - In vitro kinase profile” (2024).
Values joined by “and” are separate entries in the source; they are usually repeats but may differ in a detail not shown here. Equal values may be shown once.

Assays:
[1] = biological target: Serine/threonine-protein kinase pim-1 (Homo sapiens) (UniProt P11309); assay: Enzymatic radiometric [Km ATP] KinaseProfiler LeadHunter assay, kinase: Pim-1, catalogue number: 14-573KP The assay has been performed by Eurofins Discovery.; settings: ATP concentration 90.0 uM, Test compound concentration 10.0 uM
[2] = biological target: RAC-alpha serine/threonine-protein kinase (Homo sapiens) (UniProt P31749); assay: Enzymatic radiometric [Km ATP] KinaseProfiler LeadHunter assay, kinase: PKB-alpha, catalogue number: 14-276KP The assay has been performed by Eurofins Discovery.; settings: ATP concentration 155.0 uM, Test compound concentration 10.0 uM
[3] = biological target: T1, Inhibitor of nuclear factor kappa-B kinase subunit alpha (Homo sapiens) (UniProt O15111); assay: Enzymatic radiometric [Km ATP] KinaseProfiler LeadHunter assay, kinase: IKK-alpha, catalogue number: 14-461KP The assay has been performed by Eurofins Discovery.; settings: ATP concentration 10.0 uM, Test compound concentration 10.0 uM
T1 sequence (whole entry): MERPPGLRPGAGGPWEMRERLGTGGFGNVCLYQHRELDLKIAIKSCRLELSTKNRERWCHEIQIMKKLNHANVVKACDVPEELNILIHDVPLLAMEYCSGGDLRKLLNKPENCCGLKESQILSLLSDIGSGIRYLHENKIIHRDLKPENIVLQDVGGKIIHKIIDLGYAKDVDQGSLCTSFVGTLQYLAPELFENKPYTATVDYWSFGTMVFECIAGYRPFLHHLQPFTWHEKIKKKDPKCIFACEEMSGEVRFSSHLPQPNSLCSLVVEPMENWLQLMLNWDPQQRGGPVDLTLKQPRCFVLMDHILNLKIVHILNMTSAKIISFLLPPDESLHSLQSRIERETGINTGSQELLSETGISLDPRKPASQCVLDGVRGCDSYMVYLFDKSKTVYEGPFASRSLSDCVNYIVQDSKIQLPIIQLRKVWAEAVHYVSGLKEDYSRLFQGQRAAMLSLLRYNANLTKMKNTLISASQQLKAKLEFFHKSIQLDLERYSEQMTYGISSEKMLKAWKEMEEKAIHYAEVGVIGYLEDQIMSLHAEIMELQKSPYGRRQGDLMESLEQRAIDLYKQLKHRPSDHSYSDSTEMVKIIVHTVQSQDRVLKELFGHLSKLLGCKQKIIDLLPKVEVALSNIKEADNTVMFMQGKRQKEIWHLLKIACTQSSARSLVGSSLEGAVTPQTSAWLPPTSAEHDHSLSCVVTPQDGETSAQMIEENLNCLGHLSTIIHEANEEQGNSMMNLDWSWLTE

[4] = biological target: Ribosomal protein S6 kinase alpha-1 (Homo sapiens) (UniProt Q15418); assay: Enzymatic radiometric [Km ATP] KinaseProfiler LeadHunter assay, kinase: Rsk1, catalogue number: 14-509KP The assay has been performed by Eurofins Discovery.; settings: ATP concentration 45.0 uM, Test compound concentration 10.0 uM
[5] = biological target: T2, Serine/threonine-protein kinase Nek2 (Homo sapiens) (UniProt P51955); assay: Enzymatic radiometric [Km ATP] KinaseProfiler LeadHunter assay, kinase: NEK2, catalogue number: 14-545KP The assay has been performed by Eurofins Discovery.; settings: ATP concentration 120.0 uM, Test compound concentration 10.0 uM
T2 sequence (whole entry): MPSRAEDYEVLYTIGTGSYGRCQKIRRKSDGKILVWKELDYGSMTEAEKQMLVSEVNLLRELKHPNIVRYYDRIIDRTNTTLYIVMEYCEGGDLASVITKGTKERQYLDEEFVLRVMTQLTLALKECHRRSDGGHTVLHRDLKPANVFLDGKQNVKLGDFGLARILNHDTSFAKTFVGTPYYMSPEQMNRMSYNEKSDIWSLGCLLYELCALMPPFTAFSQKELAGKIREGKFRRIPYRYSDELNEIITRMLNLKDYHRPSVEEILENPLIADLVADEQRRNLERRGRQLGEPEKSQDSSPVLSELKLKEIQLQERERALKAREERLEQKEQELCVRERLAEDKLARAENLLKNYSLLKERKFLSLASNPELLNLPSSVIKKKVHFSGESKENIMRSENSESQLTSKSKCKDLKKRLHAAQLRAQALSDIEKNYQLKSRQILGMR

[6] = biological target: CDK9/cyclin T1 (Homo sapiens) (UniProt O60563+P50750); assay: Enzymatic radiometric [Km ATP] KinaseProfiler LeadHunter assay, kinase: CDK9/cyclin T1, catalogue number: 14-685KP The assay has been performed by Eurofins Discovery.; type: protein-complex assay; settings: ATP concentration 45.0 uM, Test compound concentration 10.0 uM
[7] = biological target: Casein kinase I isoform gamma-1 (Homo sapiens) (UniProt Q9HCP0); assay: Enzymatic radiometric [Km ATP] KinaseProfiler LeadHunter assay, kinase: CK1-gamma1, catalogue number: 14-711KP The assay has been performed by Eurofins Discovery.; settings: ATP concentration 15.0 uM, Test compound concentration 10.0 uM
[8] = biological target: T3, Tyrosine-protein kinase receptor TYRO3 (Homo sapiens) (UniProt Q06418); assay: Enzymatic radiometric [Km ATP] KinaseProfiler LeadHunter assay, kinase: Rse, catalogue number: 14-535KP The assay has been performed by Eurofins Discovery.; settings: ATP concentration 45.0 uM, Test compound concentration 10.0 uM
T3 sequence (whole entry): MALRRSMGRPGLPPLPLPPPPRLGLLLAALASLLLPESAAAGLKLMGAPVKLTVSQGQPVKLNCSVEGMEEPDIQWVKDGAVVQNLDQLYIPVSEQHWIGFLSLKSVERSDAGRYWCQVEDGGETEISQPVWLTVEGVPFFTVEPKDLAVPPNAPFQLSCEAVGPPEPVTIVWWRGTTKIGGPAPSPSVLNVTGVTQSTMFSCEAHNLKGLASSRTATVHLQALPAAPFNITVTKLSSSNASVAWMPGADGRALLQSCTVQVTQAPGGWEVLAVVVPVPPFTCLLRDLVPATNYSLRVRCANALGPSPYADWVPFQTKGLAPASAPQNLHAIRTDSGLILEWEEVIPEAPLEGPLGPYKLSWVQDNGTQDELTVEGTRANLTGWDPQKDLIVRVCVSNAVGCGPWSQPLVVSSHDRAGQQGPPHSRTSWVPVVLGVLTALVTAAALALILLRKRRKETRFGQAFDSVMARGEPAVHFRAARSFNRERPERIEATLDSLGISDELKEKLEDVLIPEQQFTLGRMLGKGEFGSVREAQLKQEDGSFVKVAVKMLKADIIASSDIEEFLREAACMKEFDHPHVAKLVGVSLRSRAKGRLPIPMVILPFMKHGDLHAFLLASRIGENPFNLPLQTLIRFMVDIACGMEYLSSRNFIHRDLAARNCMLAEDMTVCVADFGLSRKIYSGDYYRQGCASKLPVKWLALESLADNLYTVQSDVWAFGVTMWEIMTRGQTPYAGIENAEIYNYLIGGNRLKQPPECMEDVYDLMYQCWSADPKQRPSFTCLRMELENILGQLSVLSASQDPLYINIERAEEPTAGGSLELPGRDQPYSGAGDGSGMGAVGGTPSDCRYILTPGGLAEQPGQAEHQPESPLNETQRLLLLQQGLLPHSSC

[9] = biological target: Glycogen synthase kinase-3 beta (Homo sapiens) (UniProt P49841); assay: Enzymatic radiometric [Km ATP] KinaseProfiler LeadHunter assay, kinase: GSK3-beta, catalogue number: 14-306KP The assay has been performed by Eurofins Discovery.; settings: ATP concentration 15.0 uM, Test compound concentration 10.0 uM
Chain of Glycogen synthase kinase-3 beta (Homo sapiens) (P49841 whole entry, looked up): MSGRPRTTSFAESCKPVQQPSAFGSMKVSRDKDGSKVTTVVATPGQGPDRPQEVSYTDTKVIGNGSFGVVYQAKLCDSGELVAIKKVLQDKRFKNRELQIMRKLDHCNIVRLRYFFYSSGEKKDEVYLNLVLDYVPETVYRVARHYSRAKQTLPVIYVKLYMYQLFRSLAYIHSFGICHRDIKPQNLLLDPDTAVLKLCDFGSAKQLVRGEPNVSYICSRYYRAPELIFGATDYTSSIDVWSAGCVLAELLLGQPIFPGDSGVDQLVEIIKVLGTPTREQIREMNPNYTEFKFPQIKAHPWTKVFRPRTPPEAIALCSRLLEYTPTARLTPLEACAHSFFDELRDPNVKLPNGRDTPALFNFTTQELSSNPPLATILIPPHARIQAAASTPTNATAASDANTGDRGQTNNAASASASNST

Chain of Ribosomal protein S6 kinase alpha-1 (Homo sapiens) (Q15418 whole entry): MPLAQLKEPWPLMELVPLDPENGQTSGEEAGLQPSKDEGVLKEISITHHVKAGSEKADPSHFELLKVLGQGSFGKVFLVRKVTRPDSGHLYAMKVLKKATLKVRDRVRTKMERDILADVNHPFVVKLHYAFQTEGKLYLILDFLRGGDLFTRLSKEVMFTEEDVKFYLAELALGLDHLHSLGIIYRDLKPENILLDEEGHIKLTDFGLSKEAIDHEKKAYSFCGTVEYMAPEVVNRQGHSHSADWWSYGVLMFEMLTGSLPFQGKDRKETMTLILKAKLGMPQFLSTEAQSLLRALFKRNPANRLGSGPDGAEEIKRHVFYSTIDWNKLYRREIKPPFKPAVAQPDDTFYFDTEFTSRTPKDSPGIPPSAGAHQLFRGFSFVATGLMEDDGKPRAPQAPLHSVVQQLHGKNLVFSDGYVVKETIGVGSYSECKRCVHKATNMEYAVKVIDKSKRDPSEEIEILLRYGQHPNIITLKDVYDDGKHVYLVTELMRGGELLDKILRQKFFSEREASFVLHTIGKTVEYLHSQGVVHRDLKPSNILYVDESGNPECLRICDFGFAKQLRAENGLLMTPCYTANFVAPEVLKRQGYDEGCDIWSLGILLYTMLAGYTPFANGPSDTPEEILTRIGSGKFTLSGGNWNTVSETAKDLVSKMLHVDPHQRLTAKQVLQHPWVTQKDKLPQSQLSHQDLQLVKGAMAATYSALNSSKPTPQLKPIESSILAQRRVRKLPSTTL
Chain of Serine/threonine-protein kinase pim-1 (Homo sapiens) (P11309 whole entry, looked up): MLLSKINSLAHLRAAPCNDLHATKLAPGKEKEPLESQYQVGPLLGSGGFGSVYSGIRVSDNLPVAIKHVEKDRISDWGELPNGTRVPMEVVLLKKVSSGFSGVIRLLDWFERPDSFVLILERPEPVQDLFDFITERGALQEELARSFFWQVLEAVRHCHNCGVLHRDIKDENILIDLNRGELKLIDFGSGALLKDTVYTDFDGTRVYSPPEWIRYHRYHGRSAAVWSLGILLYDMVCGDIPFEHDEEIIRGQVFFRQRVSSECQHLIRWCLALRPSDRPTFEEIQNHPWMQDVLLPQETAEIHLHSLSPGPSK
Chain of RAC-alpha serine/threonine-protein kinase (Homo sapiens) (P31749 whole entry): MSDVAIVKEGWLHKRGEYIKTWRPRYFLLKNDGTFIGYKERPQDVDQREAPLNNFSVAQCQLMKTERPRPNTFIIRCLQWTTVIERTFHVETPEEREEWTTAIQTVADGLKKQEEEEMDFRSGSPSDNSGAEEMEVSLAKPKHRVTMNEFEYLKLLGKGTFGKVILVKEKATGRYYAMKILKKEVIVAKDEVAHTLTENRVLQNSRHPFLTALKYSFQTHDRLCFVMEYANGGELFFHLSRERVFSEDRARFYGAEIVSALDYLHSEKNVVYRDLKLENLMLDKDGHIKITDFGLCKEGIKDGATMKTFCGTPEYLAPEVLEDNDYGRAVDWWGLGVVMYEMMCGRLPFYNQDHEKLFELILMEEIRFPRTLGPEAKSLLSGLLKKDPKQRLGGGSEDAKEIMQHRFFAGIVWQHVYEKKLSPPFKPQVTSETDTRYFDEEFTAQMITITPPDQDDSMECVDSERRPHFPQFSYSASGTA
Chain of Casein kinase I isoform gamma-1 (Homo sapiens) (Q9HCP0 whole entry, looked up, canonical isoform): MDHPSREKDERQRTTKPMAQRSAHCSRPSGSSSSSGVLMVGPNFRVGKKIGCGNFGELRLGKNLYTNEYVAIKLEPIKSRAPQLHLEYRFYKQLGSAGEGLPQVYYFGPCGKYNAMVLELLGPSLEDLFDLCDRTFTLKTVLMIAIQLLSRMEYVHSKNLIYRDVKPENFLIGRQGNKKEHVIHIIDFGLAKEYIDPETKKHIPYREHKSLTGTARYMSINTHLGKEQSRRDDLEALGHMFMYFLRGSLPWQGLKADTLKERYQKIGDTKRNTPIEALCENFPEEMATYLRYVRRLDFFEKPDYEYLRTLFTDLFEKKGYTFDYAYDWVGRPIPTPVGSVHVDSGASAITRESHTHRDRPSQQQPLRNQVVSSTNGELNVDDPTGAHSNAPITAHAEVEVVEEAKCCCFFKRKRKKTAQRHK

Row | Activity [1] | Activity [2] | Activity [3] | Activity [4] [%] | Activity [5] | Activity [6] [%] | Activity [7] | Activity [8] | Activity [9] | Compound
1 | 95% | 95% | 99% | 88 | 101% | 103 | 92% | 87% | 93% | C[C@H](C(=O)O)[C@@H](NC(=O)c1ncnc2[nH]ccc12)c1ccc(Br)cc1
2 | 107% | 103% | 125% | 136 | 104% | 130 | 94% | 110% | 98% | Cn1ncc(-c2cc3c(N[C@@H](c4ccc5c(n4)OCCO5)C(C)(C)C)ncnc3[nH]2)c1C#N
3 | 91% | 94% | 99% | 98 | 100% | 117 | 95% | 88% | 105% | COc1ccc([C@@H](Cc2nnn[nH]2)NC(=O)c2ncnc3[nH]ccc23)cc1
4 | 80% | 96% | 91% | 92 | 118% | 114 | 102% | 115% | 107% | CC(C)[C@@H](Nc1ncnc2[nH]ccc12)c1ccc2c(c1)S(=O)(=O)CCC2
5 | 97% | 88% | 82% | 94 | 118% | 108 | 100% | 107% | 93% | CC(C)[C@@H](Nc1ncnc2[nH]c(C(=O)N[C@@H]3CCN(C)C3)cc12)c1ccc2c(c1)S(=O)(=O)CCC2
6 | 99% | 97% | 98% | 102 | 106% | 109 | 94% | 100% | 90% | COc1ccc([C@H](Cc2nnn[nH]2)NC(=O)c2ncnc3[nH]ccc23)cc1
7 | 95% | 91% | 94% | 110 | 98% | 57 | 99% | 96% | 96% | Cc1nn(C)cc1-c1cc2c(N[C@H](c3ccc4c(c3)S(=O)(=O)CCC4)C(C)C)ncnc2[nH]1
8 | 98% | 90% | 120% | 120 | 105% | 79 | 100% | 105% | 98% | CC(C)[C@H](Nc1ncnc2[nH]c(-c3cnn(C)c3C#N)cc12)c1ccc2c(n1)OCCO2
9 | 93% | 96% | 79% | 90 | 105% | 40 | 99% | 81% | 92% | CNCc1cc(-c2cc3c(N[C@@H](c4ccc5c(c4)S(=O)(=O)CCC5)C(C)C)ncnc3[nH]2)co1
10 | 97% | 95% | 84% | 94 | 114% | 61 | 97% | 89% | 98% | CNC(=O)Cn1cc(-c2cc3c(N[C@@H](c4ccc5c(c4)S(=O)(=O)CCC5)C(C)C)ncnc3[nH]2)cn1
11 | 91% | 95% | 92% | 102 | 109% | 112 | 97% | 86% | 94% | CC(C)[C@H](Nc1ncnc2[nH]ccc12)c1ccc2c(c1)S(=O)(=O)CCC2
12 | 79% and 99% | 95% and 94% | 111% and 104% |  | 94% and 76% |  | 87% and 99% | 116% and 107% | 85% and 101% | CC(C)[C@@H](Nc1ncnc2[nH]c(-c3cnn(C)c3C#N)cc12)c1ccc2c(n1)OCCO2
